System: clathrin heavy chain (CHC; antibody recognises both CHC1 and CHC2)
Assay: CETSA
Format: biochemical, Arabidopsis thaliana

## O=S(=O)(Nc1ccccc1)c1ccc(Br)s1 [compound 14, ES9-17]
  EC50: 123 ± 1.13 µM
